Test results published in ChEMBL document CHEMBL6109175, “Ubiquitin-Specific Protease 7 (USP7) as a Promising Therapeutic Target for Drug Discovery: From Mechanisms to Therapies” (J Med Chem, 2025).
Values belong to the molecule of their own block, whether it stands above or below them.

Experiments:
[1] = target: T1, Ubiquitin carboxyl-terminal hydrolase 7 (Homo sapiens, UniProt Q93009); assay: Inhibition of full length USP7 (unknown origin)
[2] = target: T1, Ubiquitin carboxyl-terminal hydrolase 7; assay: Inhibition of N-terminal His-tagged USP7 catalytic domain (208 to 554 residues) (unknown origin) by TR-FRET assay
[3] = target: T1, Ubiquitin carboxyl-terminal hydrolase 7; assay: Inhibition of USP7 catalytic domain human USP7 (208 to 560 residues) (unknown origin) extracted from Escherichia coli
[4] = target: T1, Ubiquitin carboxyl-terminal hydrolase 7; assay: Binding affinity to USP7 catalytic domain human USP7 (208 to 560 residues) (unknown origin) extracted from Escherichia coli assessed as dissociation constant

T1 sequence (Q93009 whole entry, the tested form may be a part): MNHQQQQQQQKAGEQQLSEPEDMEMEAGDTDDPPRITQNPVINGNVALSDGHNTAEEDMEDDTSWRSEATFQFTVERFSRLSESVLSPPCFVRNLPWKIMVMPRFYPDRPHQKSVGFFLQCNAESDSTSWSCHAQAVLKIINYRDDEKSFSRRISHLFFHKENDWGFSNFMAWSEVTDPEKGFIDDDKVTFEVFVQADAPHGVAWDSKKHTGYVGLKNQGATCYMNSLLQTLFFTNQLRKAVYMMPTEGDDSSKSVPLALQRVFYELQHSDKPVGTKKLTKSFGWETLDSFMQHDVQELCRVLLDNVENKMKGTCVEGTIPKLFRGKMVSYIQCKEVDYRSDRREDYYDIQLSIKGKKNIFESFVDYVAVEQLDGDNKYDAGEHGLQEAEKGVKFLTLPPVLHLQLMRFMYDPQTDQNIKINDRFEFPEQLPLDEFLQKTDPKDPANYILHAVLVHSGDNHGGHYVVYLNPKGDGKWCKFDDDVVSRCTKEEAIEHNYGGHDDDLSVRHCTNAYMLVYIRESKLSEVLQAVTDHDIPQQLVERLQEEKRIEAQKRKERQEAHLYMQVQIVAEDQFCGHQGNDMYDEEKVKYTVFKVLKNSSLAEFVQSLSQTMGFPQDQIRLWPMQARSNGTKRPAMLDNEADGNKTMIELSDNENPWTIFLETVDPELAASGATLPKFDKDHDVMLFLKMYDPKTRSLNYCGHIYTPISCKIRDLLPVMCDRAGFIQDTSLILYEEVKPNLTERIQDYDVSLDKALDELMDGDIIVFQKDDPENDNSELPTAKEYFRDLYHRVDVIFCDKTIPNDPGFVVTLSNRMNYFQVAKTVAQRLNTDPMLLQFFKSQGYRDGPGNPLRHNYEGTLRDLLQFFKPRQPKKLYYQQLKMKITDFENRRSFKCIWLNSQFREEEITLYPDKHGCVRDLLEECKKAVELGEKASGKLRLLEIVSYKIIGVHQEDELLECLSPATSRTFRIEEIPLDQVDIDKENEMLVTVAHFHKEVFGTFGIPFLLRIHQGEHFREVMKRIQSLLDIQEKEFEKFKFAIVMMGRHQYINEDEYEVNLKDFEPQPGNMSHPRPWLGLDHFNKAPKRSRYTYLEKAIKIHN

- IC50 [1]: 10.2 µM
SMILES: O=C(CCc1ccccc1)N1CCC(O)(Cn2cnc3cc(Cl)ccc3c2=O)CC1

- IC50 [2]: 0.61 µM
SMILES: CCc1c(-c2ccc(C(=O)NC)nc2)cnc(N)c1-c1ccc(O)cc1

- IC50 [3]: 52 µM
- Kd [4]: 0.065 µM
SMILES: O=C(C[C@@H](C(F)F)n1ccc(F)n1)N1CCC(O)(Cn2cnc3c(cnn3-c3ccc(F)cc3)c2=O)CC1
